IC50 data for 28 compounds are collected here from patent US6972296B2, “Carboxylic acid derivatives that inhibit the binding of integrins to their receptors” (Encysive Pharmaceuticals Inc., priority 1999, dated 2005).

SMILES strings stand for the structures.

The target of the assay is T1, α4β1 integrin (Homo sapiens, UniProt P05556+P13612).
T1 construct: endogenous in cells; host or cells: Ramos cells
Description: Adhesion of calcein-labeled Ramos cells to CS1 (fibronectin) peptide conjugated ovalbumin. Format: cell-based. As to conditions: Ramos cell adhesion to CS1 conjugated ovalbumin. The procedure, abridged: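 Calcein AM-labelled Ramos cells (2.5×10^5/well) with compound, up to 100 μM, added to plates coated with CS1 peptide–ovalbumin (0.5 μg/ml) and blocked with 3% BSA. Binding buffer TBS pH 7.5 with 1 mM each MgCl2, CaCl2, MnCl2; 30 min, 37 °C. After washes, adherent cells lysed and read fluorometrically; […].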

Setting [1] is: Table 7, dose required to give 50% inhibition.
The mark [2] stands for this setting: Table 5, dose required to give 50% inhibition.

T1 sequence (P13612 34-1032): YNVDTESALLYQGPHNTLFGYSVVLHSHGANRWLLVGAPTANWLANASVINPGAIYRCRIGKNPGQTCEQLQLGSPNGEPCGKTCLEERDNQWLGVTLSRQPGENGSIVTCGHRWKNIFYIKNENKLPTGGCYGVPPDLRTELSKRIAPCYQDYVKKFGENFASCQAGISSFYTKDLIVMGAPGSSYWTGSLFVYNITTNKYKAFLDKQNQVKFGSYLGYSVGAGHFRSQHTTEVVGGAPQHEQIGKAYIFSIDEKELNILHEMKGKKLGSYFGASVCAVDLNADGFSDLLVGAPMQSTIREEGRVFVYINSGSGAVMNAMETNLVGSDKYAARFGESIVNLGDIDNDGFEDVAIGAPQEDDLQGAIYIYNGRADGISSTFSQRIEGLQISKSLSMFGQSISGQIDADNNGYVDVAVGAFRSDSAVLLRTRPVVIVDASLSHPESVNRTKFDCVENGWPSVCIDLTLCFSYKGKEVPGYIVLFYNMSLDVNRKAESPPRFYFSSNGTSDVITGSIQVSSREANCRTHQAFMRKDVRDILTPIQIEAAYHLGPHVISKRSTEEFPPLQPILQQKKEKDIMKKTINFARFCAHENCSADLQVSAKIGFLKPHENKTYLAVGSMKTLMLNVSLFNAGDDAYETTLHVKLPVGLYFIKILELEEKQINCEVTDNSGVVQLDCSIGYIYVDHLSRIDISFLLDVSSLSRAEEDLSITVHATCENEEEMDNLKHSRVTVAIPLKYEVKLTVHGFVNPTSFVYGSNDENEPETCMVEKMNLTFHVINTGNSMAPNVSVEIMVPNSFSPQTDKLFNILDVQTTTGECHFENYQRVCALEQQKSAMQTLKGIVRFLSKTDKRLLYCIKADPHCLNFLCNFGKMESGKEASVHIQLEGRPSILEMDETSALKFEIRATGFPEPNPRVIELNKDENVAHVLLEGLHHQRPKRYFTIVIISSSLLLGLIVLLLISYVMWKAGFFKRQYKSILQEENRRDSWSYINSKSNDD
T1 sequence (P05556 21-798): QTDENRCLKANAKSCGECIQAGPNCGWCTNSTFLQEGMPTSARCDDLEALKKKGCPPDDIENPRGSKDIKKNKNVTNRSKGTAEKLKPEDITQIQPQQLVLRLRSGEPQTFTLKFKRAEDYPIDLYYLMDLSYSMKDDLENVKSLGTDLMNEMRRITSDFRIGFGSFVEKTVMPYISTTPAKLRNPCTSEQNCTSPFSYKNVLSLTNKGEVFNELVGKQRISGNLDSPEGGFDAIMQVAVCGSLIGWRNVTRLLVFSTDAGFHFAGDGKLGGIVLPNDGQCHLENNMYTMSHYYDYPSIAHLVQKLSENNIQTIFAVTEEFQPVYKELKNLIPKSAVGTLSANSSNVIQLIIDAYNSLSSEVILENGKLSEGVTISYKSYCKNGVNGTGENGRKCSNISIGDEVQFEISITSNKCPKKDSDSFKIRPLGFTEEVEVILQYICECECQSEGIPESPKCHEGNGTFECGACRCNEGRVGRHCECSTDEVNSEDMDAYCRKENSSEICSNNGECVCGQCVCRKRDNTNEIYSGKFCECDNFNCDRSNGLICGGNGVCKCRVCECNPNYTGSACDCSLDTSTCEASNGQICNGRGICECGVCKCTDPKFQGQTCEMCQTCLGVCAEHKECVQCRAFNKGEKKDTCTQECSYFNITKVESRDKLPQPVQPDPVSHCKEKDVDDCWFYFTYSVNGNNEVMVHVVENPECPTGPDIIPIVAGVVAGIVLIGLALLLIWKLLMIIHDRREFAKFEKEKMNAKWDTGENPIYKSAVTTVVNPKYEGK

One may read the IC50 as the point on the concentration scale where inhibition reaches its midpoint. `CCOc1cccc(Cl)c1Cn1cc(C)c(O)c(NC(=O)N[C@@H](CC(=O)O)c2ccc3c(c2)CCO3)c1=O` [(3S)-3-[({[1-(2-chloro-6-ethoxybenzyl)-4-hydroxy-5-methyl-2-oxo-1,2-dihydropyridin-3-yl]amino}carbonyl)amino]-3-(2,3-dihydro-1-benzofuran-5-yl)propanoic acid]: under setting [1], the IC50 was 2 nM. For the compound `CCOc1cccc([C@H](CC(=O)O)NC(=O)Nc2c(O)c(C)cn(Cc3c(Cl)cccc3OCC)c2=O)c1` [(3S)-3-[({[1-(2-chloro-6-ethoxybenzyl)-4-hydroxy-5-methyl-2-oxo-1,2-dihydropyridin-3-yl]amino}carbonyl)amino]-3-(3-ethoxyphenyl)propanoic acid], for the setting “Table 6, 30 minutes at 37° C.”, the IC50 was 2 nM. Take `CCOc1cccc(Cl)c1Cn1cc(C)c(O)c(NC(=O)N[C@@H](CC(=O)O)c2cccc(OC(C)C)c2)c1=O` [(3S)-3-[({[1-(2-chloro-6-ethoxybenzyl)-4-hydroxy-5-methyl-2-oxo-1,2-dihydropyridin-3-yl]amino}carbonyl)amino]-3-(3-isopropoxyphenyl)propanoic acid]: under “Table 6, 30 minutes at 37° C.”, the IC50 was 4 nM. Same read-out and setting: then `CCOc1cccc(Cl)c1Cn1cc(C)c(O)c(NC(=O)N[C@@H](CC(=O)O)c2ccc(C)cc2)c1=O` [(3S)-3-[({[1-(2-chloro-6-ethoxybenzyl)-4-hydroxy-5-methyl-2-oxo-1,2-dihydropyridin-3-yl]amino}carbonyl)amino]-3-(4-methylphenyl)propanoic acid], with 3 nM. For `CCOc1cccc(Cl)c1Cn1cc(C)c(O)c(NC(=O)N[C@@H](CC(=O)O)c2ccc3cc(OC)ccc3c2)c1=O` [(3S)-3-[({[1-(2-chloro-6-ethoxybenzyl)-4-hydroxy-5-methyl-2-oxo-1,2-dihydropyridin-3-yl]amino}carbonyl)amino]-3-(6-methoxy-2-naphthyl)propanoic acid], under setting [1], the IC50 was 3 nM. Still for that read-out and setting: then `CCOc1cccc(Cl)c1Cn1cc(C)c(O)c(NC(=O)N[C@@H](CC(=O)O)c2cccc(OC(F)(F)F)c2)c1=O` [(3S)-3-[({[1-(2-chloro-6-ethoxybenzyl)-4-hydroxy-5-methyl-2-oxo-1,2-dihydropyridin-3-yl]amino}carbonyl)amino]-3-[3-(trifluoromethoxy)phenyl]propanoic acid], with 4 nM; and `CCOc1cccc(Cl)c1Cn1c(C)cc(O)c(NC(=O)N[C@@H](CC(=O)O)c2cccc(OC(C)C)c2)c1=O` [(3S)-3-[({[1-(2-chloro-6-ethoxybenzyl)-4-hydroxy-6-methyl-2-oxo-1,2-dihydropyridin-3-yl]amino}carbonyl)amino]-3-(3-isopropoxyphenyl)propanoic acid], with 3 nM.

Turning to `CCOc1cccc(Cl)c1Cn1cc(C2CC2)c(O)c(NC(=O)N[C@@H](CC(=O)O)c2cccc(OC(C)C)c2)c1=O` [(3S)-3-[({[1-(2-chloro-6-ethoxybenzyl)-5-cyclopropyl-4-hydroxy-2-oxo-1,2-dihydropyridin-3-yl]amino}carbonyl)amino]-3-(3-isopropoxyphenyl)propanoic acid], the IC50 under setting [1] was 3 nM. Still for that read-out and setting: then `CCOc1cccc(Cl)c1Cn1cc(C2CC2)c(O)c(NC(=O)N[C@@H](CC(=O)O)c2ccc(C)cc2)c1=O` [(3S)-3-[({[1-(2-chloro-6-ethoxybenzyl)-5-cyclopropyl-4-hydroxy-2-oxo-1,2-dihydropyridin-3-yl]amino}carbonyl)amino]-3-(4-methylphenyl)propanoic acid], with 3 nM. For `COc1cccc(Cl)c1Cn1cccc(NC(=O)N[C@@H](CC(=O)O)c2ccc(C)cc2)c1=O` [(3S)-3-[({[1-(2-chloro-6-methoxybenzyl)-2-oxo-1,2-dihydropyridin-3-yl]amino}carbonyl)amino]-3-(4-methylphenyl)propanoic acid], under setting [2], the IC50 is 100 nM.

For `COc1cc(OC)cc([C@H](CC(=O)O)NC(=O)Nc2c(O)ccn(Cc3c(Cl)cccc3OC)c2=O)c1` [(3S)-3-[({[1-(2-chloro-6-methoxybenzyl)-4-hydroxy-2-oxo-1,2-dihydropyridin-3-yl]amino}carbonyl)amino]-3-(3,5-dimethoxyphenyl)propanoic acid], the concentration for half-maximal inhibition (IC50) under setting [2] is 1.5 nM. Turning to `COc1cccc(Cl)c1Cn1ccc(O)c(NC(=O)N[C@@H](CC(=O)O)c2cccc(C)c2)c1=O` [(3S)-3-[({[1-(2-chloro-6-methoxybenzyl)-4-hydroxy-2-oxo-1,2-dihydropyridin-3-yl]amino}carbonyl)amino]-3-(3-methylphenyl)propanoic acid], the IC50 under setting [2] was 5 nM. Still for that read-out and setting: the value for `COc1cccc(Cl)c1Cn1ccc(O)c(NC(=O)N[C@@H](CC(=O)O)c2ccc(C)cc2)c1=O` [(3S)-3-[({[1-(2-chloro-6-methoxybenzyl)-4-hydroxy-2-oxo-1,2-dihydropyridin-3-yl]amino}carbonyl)amino]-3-(4-methylphenyl)propanoic acid] was 3 nM. Take `CCOc1ccc([C@H](CC(=O)O)NC(=O)Nc2c(O)c(C)cn(Cc3c(Cl)cccc3OC)c2=O)cc1OCC` [(3S)-3-[({[1-(2-chloro-6-methoxybenzyl)-4-hydroxy-5-methyl-2-oxo-1,2-dihydropyridin-3-yl]amino}carbonyl)amino]-3-(3,4-diethoxyphenyl)propanoic acid]: the IC50 (Table 6, 30 minutes at 37° C.) is 2 nM. The same measure, in the same setting: then `CCOc1cccc([C@H](CC(=O)O)NC(=O)Nc2c(O)c3c(n(Cc4c(C)cccc4Cl)c2=O)CCC3)c1` [(3S)-3-[({[1-(2-chloro-6-methylbenzyl)-4-hydroxy-2-oxo-2,5,6,7-tetrahydro-1H-cyclopenta[b]pyridin-3-yl]amino}carbonyl)amino]-3-(3-ethoxyphenyl)propanoic acid], with 4 nM. Turning to `Cc1ccc([C@H](CC(=O)O)NC(=O)Nc2c(O)c(C)cn(Cc3c(C)cccc3Cl)c2=O)cc1` [(3S)-3-[({[1-(2-chloro-6-methylbenzyl)-4-hydroxy-5-methyl-2-oxo-1,2-dihydropyridin-3-yl]amino}carbonyl)amino]-3-(4-methylphenyl)propanoic acid], the IC50 under setting [2] was 10 nM.

With `O=C(O)C[C@H](NC(=O)Nc1c(O)ccn(Cc2ccccc2Cl)c1=O)c1ccc2c(c1)OCCO2` [(3S)-3-[({[1-(2-chlorobenzyl)-4-hydroxy-2-oxo-1,2-dihydropyridin-3-yl]amino}carbonyl)amino]-3-(2,3-dihydro-1,4-benzodioxin-6-yl)propanoic acid], under setting [2], the IC50 is 10 nM. Regarding `CCOc1ccc([C@H](CC(=O)O)NC(=O)Nc2c(O)ccn(Cc3ccccc3Cl)c2=O)cc1OCC` [(3S)-3-[({[1-(2-chlorobenzyl)-4-hydroxy-2-oxo-1,2-dihydropyridin-3-yl]amino}carbonyl)amino]-3-(3,4-diethoxyphenyl)propanoic acid], the IC50 under setting [2] is 0.8 nM. Same read-out and setting: the value for `COc1ccc([C@H](CC(=O)O)NC(=O)Nc2c(O)ccn(Cc3ccccc3Cl)c2=O)cc1OC` [(3S)-3-[({[1-(2-chlorobenzyl)-4-hydroxy-2-oxo-1,2-dihydropyridin-3-yl]amino}carbonyl)amino]-3-(3,4-dimethoxyphenyl)propanoic acid] was 2 nM; that for `Cc1ccc([C@H](CC(=O)O)NC(=O)Nc2c(O)ccn(Cc3ccccc3Cl)c2=O)cc1C` [(3S)-3-[({[1-(2-chlorobenzyl)-4-hydroxy-2-oxo-1,2-dihydropyridin-3-yl]amino}carbonyl)amino]-3-(3,4-dimethylphenyl)propanoic acid] was 5 nM. Same read-out and setting: the value for `CCCOc1ccc([C@H](CC(=O)O)NC(=O)Nc2c(O)ccn(Cc3ccccc3Cl)c2=O)cc1OCCC` [(3S)-3-[({[1-(2-chlorobenzyl)-4-hydroxy-2-oxo-1,2-dihydropyridin-3-yl]amino}carbonyl)amino]-3-(3,4-dipropoxyphenyl)propanoic acid] was 3 nM; that for `COc1cc([C@H](CC(=O)O)NC(=O)Nc2c(O)ccn(Cc3ccccc3Cl)c2=O)cc(OC)c1C` [(3S)-3-[({[1-(2-chlorobenzyl)-4-hydroxy-2-oxo-1,2-dihydropyridin-3-yl]amino}carbonyl)amino]-3-(3,5-dimethoxy-4-methylphenyl)propanoic acid] was 3 nM; that for `CCOc1cc([C@H](CC(=O)O)NC(=O)Nc2c(O)ccn(Cc3ccccc3Cl)c2=O)ccc1OC` [(3S)-3-[({[1-(2-chlorobenzyl)-4-hydroxy-2-oxo-1,2-dihydropyridin-3-yl]amino}carbonyl)amino]-3-(3-ethoxy-4-methoxyphenyl)propanoic acid] was 2 nM. Same read-out and setting: the value for `CCOc1cccc([C@H](CC(=O)O)NC(=O)Nc2c(O)ccn(Cc3ccccc3Cl)c2=O)c1` [(3S)-3-[({[1-(2-chlorobenzyl)-4-hydroxy-2-oxo-1,2-dihydropyridin-3-yl]amino}carbonyl)amino]-3-(3-ethoxyphenyl)propanoic acid] was 3 nM. As to `CC(C)Oc1cccc([C@H](CC(=O)O)NC(=O)Nc2c(O)ccn(Cc3ccccc3Cl)c2=O)c1` [(3S)-3-[({[1-(2-chlorobenzyl)-4-hydroxy-2-oxo-1,2-dihydropyridin-3-yl]amino}carbonyl)amino]-3-(3-isopropoxyphenyl)propanoic acid], the IC50 (Table 6, 30 minutes at 37° C.) is 3 nM. On to `COc1cc([C@H](CC(=O)O)NC(=O)Nc2c(O)ccn(Cc3ccccc3Cl)c2=O)ccc1C` [(3S)-3-[({[1-(2-chlorobenzyl)-4-hydroxy-2-oxo-1,2-dihydropyridin-3-yl]amino}carbonyl)amino]-3-(3-methoxy-4-methylphenyl)propanoic acid], for which the IC50 under setting [2] was 3 nM. For the compound `COc1cc([C@H](CC(=O)O)NC(=O)Nc2c(O)ccn(Cc3ccccc3Cl)c2=O)cc2c1OCO2` [(3S)-3-[({[1-(2-chlorobenzyl)-4-hydroxy-2-oxo-1,2-dihydropyridin-3-yl]amino}carbonyl)amino]-3-(7-methoxy-1,3-benzodioxol-5-yl)propanoic acid], the IC50 under setting [2] is 5 nM. Still for that read-out and setting: then `COCCOc1cccc([C@H](CC(=O)O)NC(=O)Nc2c(O)ccn(Cc3ccccc3Cl)c2=O)c1` [(3S)-3-[({[1-(2-chlorobenzyl)-4-hydroxy-2-oxo-1,2-dihydropyridin-3-yl]amino}carbonyl)amino]-3-[3-(2-methoxyethoxy)phenyl]propanoic acid], with 3 nM.
